Data: US20060228333A1, “Methods for control of tumors and chronic infections by modulating immunologically informed carriers homing to tolerogenic organs or tissues” (priority 2004, published 2006)

Test system: thymus (homing of Brown Norway rat PBMCs)
Experiment: Thymic homing of injected donor PBMCs after drug treatment (homed cell counting in sliced thymus)
Format: in vivo, Lewis rats
Settings: for Thymic homing (cell number): control 6580; for Thymic homing compared with control and other treated groups: doses as in Table 1; for Activation of the epithelial cells of the thymus: stated in discussion of Example 1
Protocol: Inbred male Lewis rats (LW, RT1l) were injected intramuscularly with rapamycine (RAPA; 0.1 mg/kg/d), tacrolimus (TAC; 0.2 mg/kg/d), cyclosporine A (CsA; 10 mg/kg), PGE 1 (32 ug/kg or 10 ug/kg) or a control.
One hour after the above treatments, 1.2-1.6×10^7 peripheral blood mononuclear cells (PBMCs) were obtained from Brown Norway rats (BN, RT1n). The cells were stained with IUBD and then injected intraperitoneally. 24 hours after cellular inoculation, the animals were sacrificed. A thymectomy was performed, the thymus was sliced and homed cell counting was performed. Homed cells may be counted by any method known to one of skill in the art. In this case, as the cells were stained before inoculation, the homed cells in the thymus were identified by the staining. The results of the cell counting are presented in Tables 1 and 2 for each treatment group: […]

[1] = Lewis rats, i.m. RAPA 0.1 mg/kg/d, TAC 0.2 mg/kg/d, CsA 10 mg/kg, 1.2-1.6 × 10^7 BN PBMCs i.p. one hour later, thymus counted 24 hours after inoculation

Row | Compound | Thymic homing (cell number) [1] | Thymic homing compared with control and other treated groups | Activation of the epithelial cells of the thymus | Thymic homing (cell number) (PGE1 10 ug/kg i.m., 1.6 × 10^7 donor cells injected, 24 hours) | Thymic homing (cell number) (PGE1 32 ug/kg i.m., 1.6 × 10^7 donor cells injected, 24 hours) | Effect on epithelial cells and PBMCs (PGE1 high dose 32 ug/kg) | Thymic homing compared with low dose and control (PGE1 high dose 32 ug/kg)
1 | C=CC[C@@H]1/C=C(\C)C[C@H](C)C[C@H](OC)[C@H]2O[C@@](O)(C(=O)C(=O)N3CCCC[C@H]3C(=O)O[C@H](/C(C)=C/[C@@H]3CC[C@@H](O)[C@H](OC)C3)[C@H](C)[C@@H](O)CC1=O)[C@H](C)C[C@@H]2OC [FK506, tacrolimus] | 2360 | inactivated PBMCs that homed to the thymus | do activate | – | – | – | –
2 | CCCCC[C@H](O)/C=C/[C@H]1[C@H](O)CC(=O)[C@@H]1CCCCCCC(=O)O [PGE1] | – | – | – | 8890 | 4680 | inactivated the epithelial cells as well as the PBMCs | less thymic homing than low doses
3 | CO[C@H]1C[C@@H]2CC[C@@H](C)[C@@](O)(O2)C(=O)C(=O)N2CCCC[C@H]2C(=O)O[C@H]([C@H](C)C[C@@H]2CC[C@@H](O)[C@H](OC)C2)CC(=O)[C@H](C)/C=C(\C)[C@@H](O)[C@@H](OC)C(=O)[C@H](C)C[C@H](C)/C=C/C=C/C=C/1C [RAPA, rapamycine] | 920 | – | – | – | – | – | –
4 | cyclosporine A [CsA] | 3365 | inactivated PBMCs that homed to the thymus | do activate | – | – | – | –
